Measured values from patent US20080021026A1, “BENZOTHIOPHENE INHIBITORS OF RHO KINASE” (priority 2006, published 2008).

Target: T1, recombinant N-terminal GST-tagged human Rho kinase 2 (ROCK2, amino acids 1-552) (Homo sapiens, UniProt O75116)
T1 construct: ROCK2, amino acids 1-552; purchased Invitrogen Inc. PV3759
Test: In vitro Rho kinase assay (luciferase-based ATP consumption), ROCK2
Format: biochemical
Details: ROCK2 IC50, recombinant GST-tagged human ROCK2, luciferase-based ATP consumption
Experimental: In Vitro Rho Kinase Assay
Rho kinase biochemical assays described below depend on firefly luciferase-based, indirect measurement of total ATP consumption by the kinase following incubation with substrate and ATP. 25 μl of Rho kinase assay buffer (20 mM Tris-HCL [pH 7.5], 1 mM MgCl2, 0.4 mM CaCl2, 0.15 mM EGTA, 0.1 mg/ml bovine serum albumin) containing 0.82 μg/ml of recombinant N-terminal GST-tagged human Rho kinase 1 (ROCK1, amino acids 1-535, Invitrogen Inc., cat. #PV-3691) or recombinant N-terminal GST-tagged human Rho kinase 2 (ROCK2, amino acids 1-552, Invitrogen Inc., cat #PV3759), 100 μg/ml S6 peptide substrate (related to amino acids 218-249 of the human 40S ribosomal protein S6, and suitable for ROCK1 or ROCK2, e.g. Upstate/Millipore Inc., cat #12-420), and 3 µM ATP are dispensed to wells of a 384 multi-well opaque plate. The plate is centrifuged for 30 seconds at approximately 200×g. 240 nl of test compound in DMSO is dispensed to each well by passive pin transfer. The lag phase of this in vitro kinase reaction permits addition of compounds soon after the reaction initiates. The reaction is allowed to incubate at 30° C. for 2 hours. The assay plates are sealed and maintained in a humidified environment. After 2 hours, 25 μl of easylite protein kinase assay reagent (Perkin-Elmer, Inc.) is dispensed. After an additional 10 minute incubation at room temperature (about 22° C.), luminescence activity is measured on a Molecular Devices Analyst multi-mode plate reader or other suitable plate reader. Kinase inhibition results in less ATP consumption, and therefore increased luminescence signal. Negative control activity is measured with DMSO lacking any test compound. The positive control is 2-methyl-1-(4-methylisoquinolin-5-ylsulfonyl)perhydro-1,4-diazepine hydrochloride (aka H-1152P, HCl salt). Efficacy is measured as a percentage of positive control activity. […] In some cases, kinase reactions and compound testing are performed in 1536 multi-well plates under similar conditions, with assay volumes appropriately scaled. The designation NT means the cited example was not tested.

T1 sequence (O75116 1-552): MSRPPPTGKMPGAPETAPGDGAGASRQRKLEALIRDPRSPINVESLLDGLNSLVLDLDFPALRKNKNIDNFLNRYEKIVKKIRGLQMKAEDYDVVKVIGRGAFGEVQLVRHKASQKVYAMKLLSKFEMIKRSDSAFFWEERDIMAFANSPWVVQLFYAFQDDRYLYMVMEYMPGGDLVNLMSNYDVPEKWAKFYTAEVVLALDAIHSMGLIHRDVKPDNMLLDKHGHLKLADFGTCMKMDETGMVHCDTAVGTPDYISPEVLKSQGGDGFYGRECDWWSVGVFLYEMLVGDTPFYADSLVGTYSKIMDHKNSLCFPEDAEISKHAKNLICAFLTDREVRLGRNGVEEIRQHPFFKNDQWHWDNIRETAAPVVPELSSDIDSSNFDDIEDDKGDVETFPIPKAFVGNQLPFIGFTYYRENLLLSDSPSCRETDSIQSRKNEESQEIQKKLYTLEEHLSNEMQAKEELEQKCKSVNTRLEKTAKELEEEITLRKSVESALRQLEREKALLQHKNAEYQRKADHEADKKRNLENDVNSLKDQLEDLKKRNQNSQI

SMILES	IC50 [µM]
Cc1c(-c2ccnc(N)n2)sc2ccc(C(=O)NCc3ccc(Cl)cc3Cl)cc12 [Example 447, Cc1c(sc2ccc(cc12)C(═O)NCc3ccc(Cl)cc3Cl)-c4ccnc(N)n4]	> 5
Cc1c(-c2ccnc(N)n2)sc2ccc(C(=O)NCc3ccccc3Cl)cc12 [Example 409, Cc1c(sc2ccc(cc12)C(═O)NCc3ccccc3Cl)-c4ccnc(N)n4]	< 5
C#CCN(Cc1ccc(Cl)cc1Cl)C(=O)c1ccc2sc(-c3ccnc(N)n3)c(C)c2c1 [Example 559, Cc1c(sc2ccc(cc12)C(═O)N(CC#C)Cc3ccc(Cl)cc3Cl)-c4ccnc(N)n4]	> 5

Same assay, conditions: recombinant GST-tagged human ROCK2, luciferase-based ATP consumption; read-out: ROCK2 IC50

SMILES	IC50 [µM]
CCN(C)C(=O)c1ccc2sc(-c3ccnc(N)n3)c(C)c2c1 [Example 460, CCN(C)C(═O)c1ccc2sc(c(C)c2c1)-c3ccnc(N)n3]	< 5
Cc1c(-c2ccnc(N)n2)sc2ccc(C(=O)NCC(C)C)cc12 [Example 342, CC(C)CNC(═O)c1ccc2sc(c(C)c2c1)-c3ccnc(N)n3]	< 5
CCCC(C)NC(=O)c1ccc2sc(-c3ccnc(N)n3)c(C)c2c1 (centres unmarked) [Example 347, CCCC(C)NC(═O)c1ccc2sc(c(C)c2c1)-c3ccnc(N)n3]	< 5
Cc1c(-c2ccnc(N)n2)sc2ccc(C(=O)N3Cc4ccccc4C3)cc12 [Example 491, Cc1c(sc2ccc(cc12)C(═O)N3Cc4ccccc4C3)-c5ccnc(N)n5]	< 5
Cc1c(-c2ccnc(N)n2)sc2ccc(C(=O)NCc3ccccc3F)cc12 [Example 384, Cc1c(sc2ccc(cc12)C(═O)NCc3ccccc3F)-c4ccnc(N)n4]	< 5
Cc1c(-c2ccnc(N)n2)sc2ccc(C(=O)N3CCN(CCN4CCOCC4)CC3)cc12 [Example 548, Cc1c(sc2ccc(cc12)C(═O)N3CCN(CCN4CCOCC4)CC3)-c5ccnc(N)n5]	> 5
Cc1c(-c2ccnc(N)n2)sc2ccc(C(=O)NCc3cccnc3)cc12 [Example 364, Cc1c(sc2ccc(cc12)C(═O)NCc3cccnc3)-c4ccnc(N)n4]	< 5
COCCNC(=O)c1ccc2sc(-c3ccnc(N)n3)c(C)c2c1 [Example 345, COCCNC(═O)c1ccc2sc(c(C)c2c1)-c3ccnc(N)n3]	< 5
Cc1c(-c2ccnc(N)n2)sc2ccc(Oc3cccc(O)c3)cc12 [Example 82, 3-(2-(2-Aminopyrimidin-4-yl)-3-methylbenzo[b]thiophen-5-yloxy)phenol]	< 5
Cc1c(-c2ccnc(N)n2)sc2ccc(C(=O)N(C)CCO)cc12 [Example 464, CN(CCO)C(═O)c1ccc2sc(c(C)c2c1)-c3ccnc(N)n3]	< 5
Cc1c(-c2ccnc(N)n2)sc2ccc(C(=O)NC3CCCc4ccccc43)cc12 (centres unmarked) [Example 417, Cc1c(sc2ccc(cc12)C(═O)NC3CCCc4ccccc34)-c5ccnc(N)n5]	< 5
Cc1c(-c2ccnc(N)n2)sc2ccc(C(=O)NCc3cccs3)cc12 [Example 367, Cc1c(sc2ccc(cc12)C(═O)NCc3cccs3)-c4ccnc(N)n4]	< 5
Cc1c(-c2ccnc(N)n2)sc2ccc(C(=O)N3CCN(c4ccc(Cl)c(Cl)c4)CC3)cc12 [Example 567, Cc1c(sc2ccc(cc12)C(═O)N3CCN(CC3)c4ccc(Cl)c(Cl)c4)-c5ccnc(N)n5]	> 5
CCN(CC)C(=O)c1ccc2sc(-c3ccnc(N)n3)c(C)c2c1 [Example 462, CCN(CC)C(═O)c1ccc2sc(c(C)c2c1)-c3ccnc(N)n3]	< 5
Cc1c(-c2ccnc(N)n2)sc2ccc(C(=O)N3CCN(CC4CCCCC4)CC3)cc12 [Example 527, Cc1c(sc2ccc(cc12)C(═O)N3CCN(CC3)CC4CCCCC4)-c5ccnc(N)n5]	> 5
Cc1c(-c2ccnc(N)n2)sc2ccc(C(=O)NC3CCc4ccccc43)cc12 (centres unmarked) [Example 391, Cc1c(sc2ccc(cc12)C(═O)NC3CCc4ccccc34)-c5ccnc(N)n5]	< 5
Cc1ccc(CCNC(=O)c2ccc3sc(-c4ccnc(N)n4)c(C)c3c2)cc1 [Example 392, Cc1ccc(CCNC(═O)c2ccc3sc(c(C)c3c2)-c4ccnc(N)n4)cc1]	> 5
COc1ccccc1N1CCN(C(=O)c2ccc3sc(-c4ccnc(N)n4)c(C)c3c2)CC1 [Example 541, COc1ccccc1N2CCN(CC2)C(═O)c3ccc4sc(c(C)c4c3)-c5ccnc(N)n5]	> 5
Cc1c(-c2ccnc(N)n2)sc2ccc(C(=O)N3CCN(c4ccc(F)cc4)CC3)cc12 [Example 526, Cc1c(sc2ccc(cc12)C(═O)N3CCN(CC3)c4ccc(F)cc4)-c5ccnc(N)n5]	< 5
Cc1c(-c2ccnc(N)n2)sc2ccc(C(=O)NCCNC(=O)OC(C)(C)C)cc12 [Example 434, Cc1c(sc2ccc(cc12)C(═O)NCCNC(═O)OC(C)(C)C)-c3ccnc(N)n3]	< 5
Cc1c(-c2ccnc(N)n2)sc2ccc(C(=O)NCCN3CCCC3)cc12 [Example 372, Cc1c(sc2ccc(cc12)C(═O)NCCN3CCCC3)-c4ccnc(N)n4]	< 5

SMILES	IC50 [µM]
Cc1c(-c2ccnc(N)n2)sc2ccc(C(=O)NC3CONC3=O)cc12 (centres unmarked) [Example 360, Cc1c(sc2ccc(cc12)C(═O)NC3CONC3═O)-c4ccnc(N)n4]	< 5
COc1ccc(CNC(=O)c2ccc3sc(-c4ccnc(N)n4)c(C)c3c2)cc1OC [Example 440, COc1ccc(CNC(═O)c2ccc3sc(c(C)c3c2)-c4ccnc(N)n4)cc1OC]	< 5
COc1ccc(CNC(=O)c2ccc3sc(-c4ccnc(N)n4)c(C)c3c2)cc1 [Example 403, COc1ccc(CNC(═O)c2ccc3sc(c(C)c3c2)-c4ccnc(N)n4)cc1]	< 5
Cc1c(-c2ccnc(N)n2)sc2ccc(C(=O)NCCO)cc12 [Example 337, Cc1c(sc2ccc(cc12)C(═O)NCCO)-c3ccnc(N)n3]	< 5
Cc1c(-c2ccnc(N)n2)sc2ccc(C(=O)NCc3ccc(C(C)C)cc3)cc12 [Example 419, CC(C)c1ccc(CNC(═O)c2ccc3sc(c(C)c3c2)-c4ccnc(N)n4)cc1]	< 5
Cc1c(-c2ccnc(N)n2)sc2ccc(C(=O)NCCN)cc12 [Example 336, Cc1c(sc2ccc(cc12)C(═O)NCCN)-c3ccnc(N)n3]	< 5
Cc1c(-c2ccnc(N)n2)sc2ccc(C(=O)N3CCN(c4ccccc4F)CC3)cc12 [Example 525, Cc1c(sc2ccc(cc12)C(═O)N3CCN(CC3)c4ccccc4F)-c5ccnc(N)n5]	> 5
Cc1c(-c2ccnc(N)n2)sc2ccc(C(=O)NC3CCC(C)CC3)cc12 (centres unmarked) [Example 368, CC1CCC(CC1)NC(═O)c2ccc3sc(c(C)c3c2)-c4ccnc(N)n4]	> 5
Cc1c(-c2ccnc(N)n2)sc2ccc(C(=O)NCc3cccc(C(F)(F)F)c3)cc12 [Example 445, Cc1c(sc2ccc(cc12)C(═O)NCc3cccc(c3)C(F)(F)F)-c4ccnc(N)n4]	< 5
Cc1ccc(CNC(=O)c2ccc3sc(-c4ccnc(N)n4)c(C)c3c2)cc1C [Example 398, Cc1ccc(CNC(═O)c2ccc3sc(c(C)c3c2)-c4ccnc(N)n4)cc1C]	> 5
Cc1c(-c2ccnc(N)n2)sc2ccc(C(=O)NC3CCN(Cc4ccccc4)CC3)cc12 [Example 452, Cc1c(sc2ccc(cc12)C(═O)NC3CCN(CC3)Cc4ccccc4)-c5ccnc(N)n5]	< 5
CCOC(=O)N1CCC(NC(=O)c2ccc3sc(-c4ccnc(N)n4)c(C)c3c2)CC1 [Example 442, CCOC(═O)N1CCC(CC1)NC(═O)c2ccc3sc(c(C)c3c2)-c4ccnc(N)n4]	< 5
Cc1c(-c2ccnc(N)n2)sc2ccc(C(=O)NCCC(C)C)cc12 [Example 350, CC(C)CCNC(═O)c1ccc2sc(c(C)c2c1)-c3ccnc(N)n3]	< 5
Cc1c(-c2ccnc(N)n2)sc2ccc(C(=O)NC3CCC3)cc12 [Example 339, Cc1c(sc2ccc(cc12)C(═O)NC3CCC3)-c4ccnc(N)n4]	< 5
Cc1c(-c2ccnc(N)n2)sc2ccc(C(=O)N3CCc4ccccc4C3)cc12 [Example 498, Cc1c(sc2ccc(cc12)C(═O)N3CCc4ccccc4C3)-c5ccnc(N)n5]	< 5
Cc1c(-c2ccnc(N)n2)sc2ccc(C(=O)NCc3cc(F)cc(F)c3)cc12 [Example 414, Cc1c(sc2ccc(cc12)C(═O)NCc3cc(F)cc(F)c3)-c4ccnc(N)n4]	< 5
Cc1c(-c2ccnc(N)n2)sc2ccc(C(=O)NCCC(C)(C)C)cc12 [Example 358, Cc1c(sc2ccc(cc12)C(═O)NCCC(C)(C)C)-c3ccnc(N)n3]	< 5
CCN(CC)CCNC(=O)c1ccc2sc(-c3ccnc(N)n3)c(C)c2c1 [Example 374, CCN(CC)CCNC(═O)c1ccc2sc(c(C)c2c1)-c3ccnc(N)n3]	< 5
Cc1c(-c2ccnc(N)n2)sc2ccc(C(=O)N(C)CC(O)c3ccccc3)cc12 (centres unmarked) [Example 507, CN(CC(O)c1ccccc1)C(═O)c2ccc3sc(c(C)c3c2)-c4ccnc(N)n4]	< 5
Cc1c(-c2ccnc(N)n2)sc2ccc(C(=O)N3CCN(c4ccccc4Cl)CC3)cc12 [Example 569, Cc1c(sc2ccc(cc12)C(═O)N3CCN(CC3)c4ccccc4Cl)-c5ccnc(N)n5]	> 5
